Several values for one entry are separate records, joined by “and”; a condition that tells them apart may be missing. Identical values can stand only once. Toxic doses and inconclusive results are not listed.
Tested on: BDF1 mice, B16 melanoma ip, median survival T/C
Experiment: NCI In Vivo Anticancer Drug Screen. Data for tumor model B16 Melanoma (intraperitoneal) in B6D2F1 (BDF1) mice
Details: endpoint: median survival time, higher = longer survival
How it was run: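 Tumor-bearing mice received test compound or vehicle. Survival or tumor size was then measured in both groups. The treated-group figure was divided by the control-group figure.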

[1] = dose: 12.5 mg/kg/injection, schedule: Q01DX009 (ip), vehicle: saline with Tween-80
[2] = dose: 37.5 mg/kg/injection, schedule: Q01DX009 (ip), vehicle: saline with Tween-80
[3] = dose: 25.0 mg/kg/injection, schedule: Q01DX009 (ip), vehicle: saline

## Cc1cc(N(CC(C)Br)CC(C)Br)ccc1N=Nc1ccccc1C(=O)O (centres undefined)
[1]
  T/C: 165 % of control and 185 % of control

## COB1OB(OC)OB(OC)O1
dose: 50.0 mg/kg/injection, schedule: Q01DX009 (ip), vehicle: saline with Tween-80
  T/C: 103 % of control
dose: 100.0 mg/kg/injection, schedule: Q01DX009 (ip), vehicle: saline with Tween-80
  T/C: 104 % of control
dose: 100.0 mg/kg/injection, schedule: Q04DX003 (ip), vehicle: saline with Tween-80
  T/C: 105 % of control
dose: 200.0 mg/kg/injection, schedule: Q01DX009 (ip), vehicle: saline with Tween-80
  T/C: 102 % of control
dose: 200.0 mg/kg/injection, schedule: Q04DX003 (ip), vehicle: saline with Tween-80
  T/C: 112 % of control
dose: 400.0 mg/kg/injection, schedule: Q01DX009 (ip), vehicle: saline with Tween-80
  T/C: 98 % of control
dose: 400.0 mg/kg/injection, schedule: Q04DX003 (ip), vehicle: saline with Tween-80
  T/C: 110 % of control

## CCOC(=O)c1ccc(N)cc1
[2]
  T/C: 121 % of control
dose: 37.5 mg/kg/injection, schedule: Q04DX003 (ip), vehicle: saline with Tween-80
  T/C: 102 % of control
dose: 75.0 mg/kg/injection, schedule: Q01DX009 (ip), vehicle: saline with Tween-80
  T/C: 112 % of control
dose: 75.0 mg/kg/injection, schedule: Q04DX003 (ip), vehicle: saline with Tween-80
  T/C: 91 % of control
dose: 150.0 mg/kg/injection, schedule: Q01DX009 (ip), vehicle: saline with Tween-80
  T/C: 107 % of control
dose: 150.0 mg/kg/injection, schedule: Q04DX003 (ip), vehicle: saline with Tween-80
  T/C: 93 % of control

## CC(=O)[O][Hg][c]1c(C)c(C)c(C)c(C)c1C
dose: 2.5 mg/kg/injection, schedule: Q01DX009 (ip), vehicle: Klucel (hydroxypropylcellulose) (HPC)
  T/C: 99 % of control
dose: 5.0 mg/kg/injection, schedule: Q01DX009 (ip), vehicle: Klucel (hydroxypropylcellulose) (HPC)
  T/C: 98 % of control
dose: 10.0 mg/kg/injection, schedule: Q01DX009 (ip), vehicle: Klucel (hydroxypropylcellulose) (HPC)
  T/C: 90 % of control
dose: 12.5 mg/kg/injection, schedule: Q01DX009 (ip), vehicle: Klucel (hydroxypropylcellulose) (HPC)
  T/C: 90 % of control

## CC12CCC(O)CC1CCC1C2CCC2(C)C(C3=CC(=O)OC3)CCC12O (centres undefined)
dose: 2.0 mg/kg/injection, schedule: Q01DX009 (ip), vehicle: Klucel (hydroxypropylcellulose) (HPC)
  T/C: 105 % of control
dose: 4.0 mg/kg/injection, schedule: Q01DX009 (ip), vehicle: Klucel (hydroxypropylcellulose) (HPC)
  T/C: 96 % of control
dose: 8.0 mg/kg/injection, schedule: Q01DX009 (ip), vehicle: Klucel (hydroxypropylcellulose) (HPC)
  T/C: 98 % of control

## O=NN(CCF)C(=O)NC1CCC(NC(=O)N(CCF)N=O)CC1 (centres undefined)
[1]
  T/C: 166 % of control
dose: 16.5 mg/kg/injection, schedule: Q01DX009 (ip), vehicle: saline with Tween-80
  T/C: 232 % of control
dose: 16.5 mg/kg/injection, schedule: Q01DX009 (ip), vehicle: saline
  T/C: 181 % of control
dose: 25.0 mg/kg/injection, schedule: Q01DX009 (ip), vehicle: saline with Tween-80
  T/C: 214 % of control and 276 % of control
[3]
  T/C: 120 % of control
[2]
  T/C: 212 % of control

## C=C1C/C(=C/C)C(=O)O[C@@H]2CCN3CC=C(COC(=O)[C@]1(C)O)[C@H]23
dose: 12.5 mg/kg/injection, schedule: Q01DX009 (ip), vehicle: saline
  T/C: 109 % of control
[3]
  T/C: 116 % of control
dose: 50.0 mg/kg/injection, schedule: Q01DX009 (ip), vehicle: saline
  T/C: 116 % of control
dose: 100.0 mg/kg/injection, schedule: Q01DX009 (ip), vehicle: saline
  T/C: 107 % of control

## CC(C)(C)OC(=O)CCC(NC(=O)OCc1ccccc1)C(=O)NN (centres undefined)
dose: 75.0 mg/kg/injection, schedule: Q04DX003 (ip), vehicle: Klucel (hydroxypropylcellulose) (HPC)
  T/C: 97 % of control
dose: 150.0 mg/kg/injection, schedule: Q04DX003 (ip), vehicle: Klucel (hydroxypropylcellulose) (HPC)
  T/C: 100 % of control
dose: 300.0 mg/kg/injection, schedule: Q04DX003 (ip), vehicle: Klucel (hydroxypropylcellulose) (HPC)
  T/C: 97 % of control
